{"source": "paper PMC8621857", "about": "“Structural Insights into the Azole Resistance of the Candida albicans Darlington Strain Using Saccharomyces cerevisiae Lanosterol 14α-Demethylase as a Surrogate” (Journal of Fungi, 2021)", "key": {"[1]": {"tested_on": "S. cerevisiae strain AD3Δ ScErg11 (AD3Δ) overexpressing wild-type ScLDM6×His", "assay": "Broth microdilution drug susceptibility assay (MIC80), strain AD3Δ ScErg11", "format": "cell-based, Saccharomyces cerevisiae", "details": "strain AD3Δ; for MIC80: Saccharomyces cerevisiae, 48 h, 30 °C, pH 6.8, mean (± SEM), n = 3, read-out: MIC80; for MIC80/Relative Amount of ScLDM6×His: relative expression 1", "description": "(§1) The native ScERG11 gene in yeast cells containing mutant ScERG11-6×His constructs in the PDR5 locus was disrupted by homologous recombination with a cassette encoding the His1 selection marker and sequences homologous with the regions bordering the endogenous ScERG11 ORF to create strains AD3Δ ScErg11 Y140H, AD3Δ ScErg11 I471T and AD3Δ ScErg11Y140H I471T [43]. Transformants were selected on SD-His agar plates incubated at 30 °C for 48–72 h. Genomic DNA was extracted, and DNA sequencing as above was used to confirm deletion of the native ERG11. Strain AD3Δ ScErg11 (denoted as AD3Δ), which overexpresses wild-type ScLDM6×His from the PDR5 locus and has the native ScERG11 gene disrupted, was used as a control strain [43].\n(§2) Azole susceptibility was measured as the mean drug concentration required to inhibit 80% of yeast growth (MIC80) compared to a non-drug control, using a standard broth microdilution assay. Serial dilutions of short- (FLC and VCZ), medium- (VT-1161), and long-tailed (ITC and PCZ) azole drugs, and the control drugs micafungin (MCF) and amphotericin B (AMB), were prepared in a 96-well microtiter plate in complete synthetic media lacking uracil, buffered to pH 6.8 [34]. Control and test cells were seeded at an optical density of 600 nm (OD600) of 0.005 (~1.5 × 10^4 colony forming units). After incubation for 48 h at 30 °C with constant agitation (200 rpm), the OD600 nm of each well was measured using a Synergy 2 multi-mode plate reader (BioTek Instruments, Winooski, VT, USA). The experiment was repeated three times (a total of nine measurements for the response of each strain to each drug). GraphPad Prism 5.0 software was used for statistical analysis, using a one-way analysis of variance with a Bonferroni post-hoc test. The statistical significance of comparisons was accepted when p < 0.05."}, "[2]": {"tested_on": "S. cerevisiae strain AD3Δ ScErg11 Y140H I471T expressing ScLDM6×His Y140H I471T", "assay": "Broth microdilution drug susceptibility assay (MIC80), strain AD3Δ ScErg11 Y140H I471T", "format": "cell-based, Saccharomyces cerevisiae", "details": "for MIC: Saccharomyces cerevisiae, strain Y140H + I471T, 48 h, 30 °C, pH 6.8, mean (± SEM), n = 3; for MIC80/Relative Amount of ScLDM6×His / fold-resistance based on the relative amount of recombinant enzyme compared with strain AD3Δ: strain Y140H+I471T, relative expression 0.41", "description": "as §1, §2"}, "[3]": {"tested_on": "C. albicans strain SC5314", "assay": "Agarose disk diffusion assay, control strain SC5314", "format": "cell-based, Candida albicans", "details": "for effect of Cdr1p inhibitor RC21v3 on azole susceptibility: SC5314, RC21v3 at 6 µM in the assay medium", "description": "Agarose diffusion assays were carried out as described previously using the Darlington strain of C. albicans (Pfizer Ltd., Sandwich, UK) and the control C. albicans database strain SC5314, which is not resistant to azoles. The Cdr1p-specific inhibitor RC21v3 and the CaMdr1p-specific inhibitor MCC1189 (MicroCombiChem, Wiesbaden, Germany), included in the assay medium at 6 µM, were used to investigate the contribution of efflux pumps to azole resistance in the Darlington strain [49, 50, 51]."}, "[4]": {"target": "T1, wild-type (AD3Δ) ScLDM6×His (Saccharomyces cerevisiae, UniProt P10614)", "T1 construct": "recombinant full-length C-terminal hexahistidine-tagged wild-type Saccharomyces cerevisiae LDM (ScLDM6×His); 6×His (hexahistidine) (C); made in house; host or cells: Saccharomyces cerevisiae strain AD3Δ ScErg11 (overexpression from the PDR5 locus, native ERG11 disrupted)", "T1 sequence (P10614 whole entry, stated change not applied)": "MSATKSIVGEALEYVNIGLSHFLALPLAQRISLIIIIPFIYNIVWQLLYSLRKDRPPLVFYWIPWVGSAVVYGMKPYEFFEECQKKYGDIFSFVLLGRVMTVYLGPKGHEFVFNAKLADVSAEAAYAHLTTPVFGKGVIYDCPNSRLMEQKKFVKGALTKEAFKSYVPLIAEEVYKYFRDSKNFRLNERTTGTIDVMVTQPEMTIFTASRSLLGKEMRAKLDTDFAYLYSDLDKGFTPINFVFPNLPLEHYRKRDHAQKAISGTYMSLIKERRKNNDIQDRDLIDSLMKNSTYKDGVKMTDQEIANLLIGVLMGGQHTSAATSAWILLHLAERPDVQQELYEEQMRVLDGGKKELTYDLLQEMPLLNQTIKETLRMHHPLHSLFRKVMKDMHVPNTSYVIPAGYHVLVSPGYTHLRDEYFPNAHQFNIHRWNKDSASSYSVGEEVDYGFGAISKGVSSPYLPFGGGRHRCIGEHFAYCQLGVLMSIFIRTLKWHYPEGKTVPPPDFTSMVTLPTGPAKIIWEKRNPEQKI", "assay": "Type II azole binding to affinity purified wild-type ScLDM6×His", "details": "for ΔAmax: type II binding", "description": "(§3) Protein purification was carried out using established methods. In brief, a 12 L culture for each control and test strain was grown overnight in 1 L volumes of YPD medium (1% [w/v] yeast extract [BD Difco], 2% [w/v] peptone [BD Difco], and 2% [w/v] D-glucose) in baffled 3 L flasks at 30 °C, with constant agitation (140 rpm). Cells harvested by centrifugation were broken by bead-beating and crude membrane fractions obtained by differential centrifugation, as previously described. The protein concentration of the crude membranes was estimated using the Lowry assay, with bovine serum albumin (Thermo Fisher) used as the protein standard. The crude membranes (1 g at 2.5 mg/mL) were detergent-solubilized using 10× critical micelle concentration (CMC) n-decyl-β-D-maltoside (DM) (Anatrace, Maumee, OH, USA) in buffer containing 10% (w/v) glycerol, 250 mM NaCl, 20 mM Tris pH 7.5, 0.5 mM phenylmethanesulfonyl fluoride (PMSF), and 1 EDTA-free protease inhibitor pill (Roche, Basel, Switzerland) per 300 mL. When the protein was to be used to assess in vitro binding affinity for the test azoles, detergent solubilized ScLDM6×His recovered after centrifugation was affinity purified using a nickel-nitrilotriacetic acid (Ni-NTA)-agarose matrix (Qiagen). The bound ScLDM6×His was eluted from the matrix using an affinity purification buffer containing 50 mM L-histidine. The L-histidine was removed by washing the enzyme through centrifugal filtration, using a 50 kDa molecular-weight cut-off Amicon Ultra-4 filter (Sigma, Auckland, New Zealand).\n(§4) The concentration of functional ScLDM6×His purified by the nickel affinity method was quantitated using the standard carbon monoxide (CO) binding method. Type II drug binding assays that measure absorbance changes due to ligand interactions with ScLDM6×His were performed for VCZ and ITC, using an established protocol. The peak429nm-trough410nm difference spectra plotted against azole concentration were used to generate drug binding curves. All calculations were performed using GraphPad Prism 5 Software."}, "ScLDM6×His I471T": {"target": "T2, ScLDM6×His I471T (Saccharomyces cerevisiae, UniProt P10614, I471T)", "T2 construct": "structurally aligned mutations in recombinant hexahistidine-tagged full-length Saccharomyces cerevisiae LDM6×His (ScLDM6×His); 6×His (hexahistidine) (C); made in house; host or cells: Saccharomyces cerevisiae strain AD3Δ ScErg11 I471T (overexpression from the PDR5 locus, native ERG11 disrupted)", "T2 sequence (P10614 whole entry I471T)": "as the sequence (P10614 whole entry, stated change not applied) above, with I471T counted along it", "assay": "Type II azole binding to affinity purified ScLDM6×His I471T", "details": "for ΔAmax: type II binding", "description": "as §3, §4"}, "[5]": {"target": "wild-type and Y140F/H mutants of ScLDM6×His", "parameters": "method as in earlier work", "details": "no significant differences, ref 5 (supplement; Sagatova et al. 2016); cited from earlier work"}, "[6]": {"details": "wild-type (AD3Δ) ScLDM6×His, 2 µM enzyme, (± SEM), μM, read-out: [Azole]0.5"}, "[7]": {"details": "wild-type (AD3Δ) ScLDM6×His, (± SEM)"}, "[8]": {"details": "wild-type ScLDM6×His, supplement, 'in the 0.5 μM range'"}, "[9]": {"details": "wild-type enzyme, in the presence of 2 µM enzyme, read-out: IC50 from type II binding curves"}, "[10]": {"details": "I471T mutant ScLDM6×His, supplement, 'in the 0.5 μM range'"}, "[11]": {"details": "I471T mutant enzyme, in the presence of 2 µM enzyme, read-out: IC50 from type II binding curves"}, "[12]": {"details": "ScLDM6×His I471T, 2 µM enzyme, (± SEM), μM, read-out: [Azole]0.5"}}, "note": "Read-outs that look alike come from different tables or passages of the source.", "data": [{"molecule": "CCC(C)n1ncn(-c2ccc(N3CCN(c4ccc(OCC5COC(Cn6cncn6)(c6ccc(Cl)cc6Cl)O5)cc4)CC3)cc2)c1=O", "note": "(centres unmarked) [ITC, itraconazole]", "values": [{"measurement": "MIC80", "setting": "[1]", "result": 0.143, "unit": "µM"}, {"measurement": "MIC80/Relative Amount of ScLDM6×His", "setting": "[1]", "result": 0.143, "unit": "µM"}, {"measurement": "MIC", "setting": "[2]", "result": 0.108, "unit": "µM"}, {"measurement": "resistance conferred, relative expression taken into account", "setting": "[2]; ScLDM6×His Y140H I471T (0.41 of wild-type) vs AD3Δ", "result": 1.8, "unit": "fold"}, {"measurement": "MIC80/Relative Amount of ScLDM6×His", "setting": "[2]", "result": 0.263, "unit": "µM"}, {"measurement": "fold-resistance based on the relative amount of recombinant enzyme compared with strain AD3Δ", "setting": "[2]", "result": 1.8, "unit": "×"}, {"measurement": "effect of Mdr1 inhibitor MCC1189 on azole susceptibility", "setting": "[3]", "result": "no effect on susceptibility"}, {"measurement": "effect of Cdr1p inhibitor RC21v3 on azole susceptibility", "setting": "[3]", "result": "increased susceptibility"}, {"measurement": "IC50", "setting": "[4]; [6]", "result": 0.6, "unit": "µM"}, {"measurement": "ΔAmax", "setting": "[4]; [7]", "result": "0.08 (0.006)"}, {"measurement": "Hill number", "setting": "[4]; [7]", "result": "1.61 (0.22)"}, {"measurement": "Kd", "setting": "[4]; [7]", "result": 430, "unit": "nM"}, {"measurement": "Kd", "setting": "[4]; [8]", "result": "~500", "unit": "nM"}, {"measurement": "IC50", "setting": "[4]; [9]", "result": "0.6 to 0.8", "unit": "µM"}, {"measurement": "Kd", "setting": "ScLDM6×His I471T; [10]", "result": "~500", "unit": "nM"}, {"measurement": "IC50", "setting": "ScLDM6×His I471T; [11]", "result": "0.6 to 0.8", "unit": "µM"}, {"measurement": "IC50", "setting": "ScLDM6×His I471T; [12]", "result": 0.79, "unit": "µM"}, {"measurement": "ΔAmax", "setting": "ScLDM6×His I471T; ScLDM6×His I471T, (± SEM)", "result": "0.06 (0.001)"}, {"measurement": "Hill number", "setting": "ScLDM6×His I471T; ScLDM6×His I471T, (± SEM)", "result": "1.55 (0.19)"}, {"measurement": "Kd", "setting": "ScLDM6×His I471T; ScLDM6×His I471T, (± SEM)", "result": 700, "unit": "nM"}, {"measurement": "Kd", "setting": "[5]", "result": "~500", "unit": "nM"}]}, {"molecule": "C[C@@H](c1ncncc1F)[C@](O)(Cn1cncn1)c1ccc(F)cc1F", "note": "[VCZ, voriconazole]", "values": [{"measurement": "MIC80", "setting": "[1]", "result": 0.0933, "unit": "µM"}, {"measurement": "MIC80/Relative Amount of ScLDM6×His", "setting": "[1]", "result": 0.0933, "unit": "µM"}, {"measurement": "MIC", "setting": "[2]", "result": 0.25, "unit": "µM"}, {"measurement": "MIC80 higher than AD3Δ ScErg11 cells", "setting": "[2]; strain AD3Δ ScErg11 Y140H I471T, not corrected for expression, p < 0.001", "result": "approximately 3 fold"}, {"measurement": "MIC80 higher than cells overexpressing ScLDM6×His Y140H", "setting": "[2]; strain AD3Δ ScErg11 Y140H I471T, p < 0.001", "result": 1.5, "unit": "fold"}, {"measurement": "MIC80/Relative Amount of ScLDM6×His", "setting": "[2]", "result": 0.609, "unit": "µM"}, {"measurement": "fold-resistance based on the relative amount of recombinant enzyme compared with strain AD3Δ", "setting": "[2]", "result": 6.5, "unit": "×"}, {"measurement": "effect of Mdr1 inhibitor MCC1189 on azole susceptibility", "setting": "[3]; SC5314, MCC1189 at 6 µM in the assay medium", "result": "did not alter the susceptibility"}, {"measurement": "effect of Cdr1p inhibitor RC21v3 on azole susceptibility", "setting": "[3]", "result": "did not alter the susceptibility"}, {"measurement": "agarose diffusion susceptibility", "setting": "[3]; SC5314, no efflux pump inhibitor", "result": "susceptible"}, {"measurement": "IC50", "setting": "[4]; [6]", "result": 0.78, "unit": "µM"}, {"measurement": "ΔAmax", "setting": "[4]; [7]", "result": "0.10 (0.004)"}, {"measurement": "Hill number", "setting": "[4]; [7]", "result": "1.85 (0.23)"}, {"measurement": "Kd", "setting": "[4]; [7]", "result": 620, "unit": "nM"}, {"measurement": "Kd", "setting": "[4]; [8]", "result": "~500", "unit": "nM"}, {"measurement": "IC50", "setting": "[4]; [9]", "result": "0.6 to 0.8", "unit": "µM"}, {"measurement": "Kd", "setting": "ScLDM6×His I471T; [10]", "result": "~500", "unit": "nM"}, {"measurement": "IC50", "setting": "ScLDM6×His I471T; [11]", "result": "0.6 to 0.8", "unit": "µM"}, {"measurement": "IC50", "setting": "ScLDM6×His I471T; [12]", "result": 0.75, "unit": "µM"}, {"measurement": "ΔAmax", "setting": "ScLDM6×His I471T; ScLDM6×His I471T, (± SEM)", "result": "0.07 (0.003)"}, {"measurement": "Hill number", "setting": "ScLDM6×His I471T; ScLDM6×His I471T, (± SEM)", "result": "1.88 (0.23)"}, {"measurement": "Kd", "setting": "ScLDM6×His I471T; ScLDM6×His I471T, (± SEM)", "result": 580, "unit": "nM"}, {"measurement": "Kd", "setting": "[5]", "result": "~500", "unit": "nM"}]}]}
